How the values were obtained:
Assay type in all cases: in vivo
normotensive dogs [1] = assay: Intraocular pressure (IOP) decrease in normotensive dogs; settings: once daily for 5 days
Protocol: (§1) (Z)-7-[(1R,2S,3R,5R)-5-Chloro-2-(3,5-dichloro-phenoxymethyl)-3-hydroxy-cyclopentyl]-hept-5-enoic acid 2-hydroxy-ethyl ester (1) was tested in normotensive dogs at 0.1%, dosing once daily for 5 days. The maximum intraocular pressure (IOP) decrease from baseline was 6.6 mmHg (40%) at 78 h; the maximum ocular surface hyperemia (OSH) score was 0.9 at 50 h. This compound was also tested in laser-induced hypertensive monkeys, using one single day dose. At 0.1%, the maximum IOP decrease from baseline was 12.5 mmHg (33%) at […]
(§2) (Z)-7-[(1R,2S,3R,5R)-5-Chloro-2-(3,5-dichloro-phenoxymethyl)-3-hydroxy-cyclopentyl]-hept-5-enoic acid 2-morpholin-4-yl-ethyl ester (2) was tested in normotensive dogs at 0.1%, dosing once daily for 5 days. The maximum intraocular pressure (IOP) decrease from baseline was 5.1 mmHg (34%) at 78 h; the maximum ocular surface hyperemia (OSH) score was 0.9 at 30 h. This compound was also tested in laser-induced hypertensive monkeys, using one single day dose. At 0.1%, the maximum IOP decrease from baseline was 11.9 mmHg (32%) at 6 h.
(§3) (Z)-7-[(1R,2S,3R,5R)-5-Chloro-2-(3,5-dichloro-phenoxymethyl)-3-hydroxy-cyclopentyl]-hept-5-enoic acid was tested at multiple concentrations in normotensive dogs, dosing once daily for 5 days. At 0.05%, the maximum IOP decrease from baseline was 4.3 mmHg (30%) at 6 h; the maximum OSH score was 0.6 at 6 h. At 0.1%, the maximum IOP decrease from baseline was 4.8 mmHg (34%) at 102 h; the maximum OSH score was 1.3 at 6 h. This compound was also tested in laser-induced hypertensive monkeys, using one single day dose. At 0.1%, the maximum IOP decrease from baseline was 6 mmHg (19%) at 6 h.
(§4) (Z)-7-[(1R,2S,3R,5R)-5-Chloro-2-(3,5-dichloro-phenoxymethyl)-3-hydroxy-cyclopentyl]-hept-5-enoic acid isopropyl ester was tested at multiple concentrations in normotensive dogs, dosing once daily for 5 days. At 0.01%, the maximum intraocular pressure (IOP) decrease from baseline was 1.1 mmHg (7%) at 2 h; the maximum ocular surface hyperemia (OSH) score was 0.6 at 74 h. At 0.05%, the maximum intraocular pressure (IOP) decrease from baseline was 2.8 mmHg (18%) at 6 h; the maximum ocular surface hyperemia (OSH) score was 0.6 at 74 h. This compound was also tested in laser-induced hypertensive monkeys, using one single day dose. At 0.01%, the maximum IOP decrease from baseline was 6.8 mmHg (18%) at 6 h. At 0.05%, the maximum IOP decrease from baseline was 6 mmHg (16%) at 2 h.

normotensive dogs [2] = assay: Ocular surface hyperemia (OSH) score in normotensive dogs; settings: once daily for 5 days; for maximum OSH score: maximum at 6 h
Protocol: as §1, §2, §3, §4

[3] = test system: laser-induced hypertensive monkeys; assay: IOP decrease in laser-induced hypertensive monkeys; settings: one single day dose
Protocol: as §1, §2, §3, §4

## CC(C)OC(=O)CCC/C=C\C[C@@H]1[C@@H](COc2cc(Cl)cc(Cl)c2)[C@H](O)C[C@H]1Cl [(Z)-7-[(1R,2S,3R,5R)-5-Chloro-2-(3,5-dichloro-phenoxymethyl)-3-hydroxy-cyclopentyl]-hept-5-enoic acid isopropyl ester]
Normotensive dogs [1]; 0.01%, maximum at 2 h
  maximum intraocular pressure (IOP) decrease from baseline: 1.1 mmHg
  maximum intraocular pressure (IOP) decrease from baseline (percent): 7%
Normotensive dogs [1]; 0.05%, maximum at 6 h
  maximum IOP decrease from baseline: 2.8 mmHg
  maximum IOP decrease from baseline (percent): 18%
Normotensive dogs [2]; 0.01%, maximum at 74 h
  maximum ocular surface hyperemia (OSH) score: 0.6
Normotensive dogs [2]; 0.05%, maximum at 74 h
  maximum ocular surface hyperemia (OSH) score: 0.6
[3]; 0.01%, maximum at 6 h
  maximum IOP decrease from baseline: 6.8 mmHg
  maximum IOP decrease from baseline (percent): 18%
[3]; 0.05%, maximum at 2 h
  maximum IOP decrease from baseline: 6 mmHg
  maximum IOP decrease from baseline (percent): 16%

## O=C(O)CCC/C=C\C[C@@H]1[C@@H](COc2cc(Cl)cc(Cl)c2)[C@H](O)C[C@H]1Cl [(Z)-7-[(1R,2S,3R,5R)-5-Chloro-2-(3,5-dichloro-phenoxymethyl)-3-hydroxy-cyclopentyl]-hept-5-enoic acid]
Normotensive dogs [1]; 0.05%, maximum at 6 h
  maximum IOP decrease from baseline: 4.3 mmHg
  maximum IOP decrease from baseline (percent): 30%
Normotensive dogs [1]; 0.1%, maximum at 102 h
  maximum IOP decrease from baseline: 4.8 mmHg
  maximum IOP decrease from baseline (percent): 34%
Normotensive dogs [2]; 0.05%
  maximum OSH score: 0.6
Normotensive dogs [2]; 0.1%
  maximum OSH score: 1.3
[3]; 0.1%, maximum at 6 h
  maximum IOP decrease from baseline: 6 mmHg
  maximum IOP decrease from baseline (percent): 19%

## O=C(CCC/C=C\C[C@@H]1[C@@H](COc2cc(Cl)cc(Cl)c2)[C@H](O)C[C@H]1Cl)OCCN1CCOCC1 [Compound 2, (Z)-7-[(1R,2S,3R,5R)-5-Chloro-2-(3,5-dichloro-phenoxymethyl)-3-hydroxy-cyclopentyl]-hept-5-enoic acid 2-morpholin-4-yl-ethyl ester]
Normotensive dogs [1]; 0.1%, maximum at 78 h
  maximum intraocular pressure (IOP) decrease from baseline: 5.1 mmHg
  maximum intraocular pressure (IOP) decrease from baseline (percent): 34%
Normotensive dogs [2]; 0.1%, maximum at 30 h
  maximum ocular surface hyperemia (OSH) score: 0.9
[3]; 0.1%, maximum at 6 h
  maximum IOP decrease from baseline: 11.9 mmHg
  maximum IOP decrease from baseline (percent): 32%

## O=C(CCC/C=C\C[C@@H]1[C@@H](COc2cc(Cl)cc(Cl)c2)[C@H](O)C[C@H]1Cl)OCCO [Compound 1, (Z)-7-[(1R,2S,3R,5R)-5-Chloro-2-(3,5-dichloro-phenoxymethyl)-3-hydroxy-cyclopentyl]-hept-5-enoic acid 2-hydroxy-ethyl ester]
Normotensive dogs [1]; 0.1%, maximum at 78 h
  maximum intraocular pressure (IOP) decrease from baseline: 6.6 mmHg
  maximum intraocular pressure (IOP) decrease from baseline (percent): 40%
Normotensive dogs [2]; 0.1%, maximum at 50 h
  maximum ocular surface hyperemia (OSH) score: 0.9
[3]; 0.1%, maximum at 4
  maximum IOP decrease from baseline: 12.5 mmHg
  maximum IOP decrease from baseline (percent): 33%

Reference: patent US7507817B2, “Prostaglandin prodrugs” (Allergan, Inc., priority 2006, dated 2009)
